In patent publication US20010053796A1, “Delta-aminolevulinic acid for prevention and treatment of infection microorganisms and parasite” (priority 2000, published 2001):

What was measured:
Bastardhalibut = assay: Breeding before Scutica artificial infection (mortality during cultivation); conditions: oral (100 ppm per feed 1 kg), 1˜3 weeks
Source text: 20 flatfish of about 25 g were set into 2 groups and 1 control group and cultivated in circulatory filtering system. In group 1, they were cultivated for 1˜3 weeks, maintaining the concentration of δ-aminolevulinic acid at 0.01˜50 ppm by administering δ-aminolevulinic acid once every 3 days to the cultivating water. In group 2, they were cultivated for 1˜3 weeks by administering δ-aminolevulinic acid solution, which was nebulized at the concentration of 0.1˜100 ppm and for artificial assorted feed (EP, fish body weight 3%: 15 g) 1 kg, and dried. In group 1 and the non-treated group, artificial assorted feed on the market with the same amount of feed of group 2 was used without δ-aminolevulinic acid treatment. […] The water temperature was maintained at 20° C. (±2° C.) throughout the experiment.

Edwardsiella tarda [1] = assay: Prevention effect for artificial infection (abdominal injection of bacteria); type: in vivo, Sebastes schlegeli; conditions: for Mortality during Cultivation: dead of 20 fish
Experimental: (§1) The water temperature was maintained at 20° C. (±2° C. ) throughout the experiment.
(§2) As the same method of above Experiment 1, fishes of both control group and experiment group were prepared and artificially infected by direct abdominal injection of Edwardsiella tarda 10^5 CFU per 1 fish. Each experimental fish was moved to fish tanks for monitoring and monitored for mortality according to infection for 2 weeks and viability after 2 weeks.

Staphylococcus epidermis [2] = assay: Treatment effect of infected fry by digestion in breeding water; type: in vivo, Sebastes schlegeli; conditions: 50 fish
Experimental: (§3) To be used as experimental fish in this example, fry of Bastardhalibut and Sebastes schlegeli (mean body weight 2 g), 50 per each breeding tank, were preliminary-bred for 1 week and stabilized. […] The artificial infection methods were carried out by the digestion method. Pathogenic organisms were applied into fish tanks and digested in seawater, wherein the concentration of organisms has adjusted to 10^4 CFU/mL for an hour, and infected. Treatment conditions are as follows. After artificial infection. Infected fishes were moved to fish tanks and kept in the infection period for 3 days. On the fourth day of infection, 0.1, 1.0, 5 and 10 ppm δ-aminolevulinic acid were introduced to use as breeding water. Fish was bred in aerobic condition for 1˜24 hours without exchanging water and then, bred for 2 weeks after exchanging with clean seawater. Then, they were monitored to check for the mortality of fish according to infection. In the control groups, after each bacteria were identically introduced through the digestion method, mortality of Bastardhalibut and Sebastes schlegeli according to bacteria infection was identified while breeding with non-treated condition of δ-aminolevulinic acid. As a result of this experiment, δ-aminolevulinic acid-treated groups have shown high viability in both Bastardhalibut (Table 12˜Table 15) and Sebastes schlegeli (Table 16˜Table 19).

Pseudomonas sp. = assay: as above; type: in vivo, Sebastes schlegeli; conditions: 50 fish
Experimental: as §3

Staphylococcus sp. [3] = assay: as above; type: in vivo, Sebastes schlegeli; conditions: 50 fish
Experimental: as §3

Edwardsiella tarda [4] = assay: as above; type: in vivo, Sebastes schlegeli; conditions: 50 fish
Experimental: as §3

Vibrio anguillarum [5] = assay: as above; type: in vivo, Sebastes schlegeli; conditions: 50 fish
Experimental: as §3

Streptococcus sp. [6] = assay: as above; type: in vivo, Sebastes schlegeli; conditions: 50 fish
Experimental: as §3

Vibrio anguillarum [7] = assay: Prevention effect for artificial infection (abdominal injection of bacteria); type: in vivo, Bastardhalibut; conditions: for Mortality during Cultivation: dead of 20 fish
Experimental: as §1, §2
Bastardhalibut and Sebastes schlegeli were infected by Vibrio anguillarum through abdominal injection with the same method of fish breeding; δ-aminolevulinic acid treatment and artificial infection carried out in Experiment 1 and 2.

Staphylococcus epidermis [8] = assay: Treatment effect of infected fry by oral administration in feed; type: in vivo, Sebastes schlegeli; conditions: 50 fish, Bastardhalibut
Experimental: (§4) In this example, fry of Bastardhalibut and Sebastes schlegeli (mean body weight 2 g), 50 per each breeding tank, were preliminary-bred for 1 week and stabilized. […] The artificial infection methods were carried out through the digestion method. Pathogenic organisms were applied into fish tanks and introduced into seawater for an hour, wherein the concentration of organisms adjusted to 10^4 CFU/mL. Treatment conditions are as follows; after artificial infection, infected fish were moved to fish tanks and kept in the infection period for 3 days. On the fourth day of infection, 0.1˜50 ppm of δ-aminolevulinic acid for feed were added. The fish were bred for 2 weeks after exchanging with clean seawater and the mortality of fish according to infection was monitored. In the control groups, after each bacteria were identically infected through digestion method, mortality of Bastardhalibut and Sebastes schlegeli according to bacteria infection was identified while breeding with marketing assorted feed without δ-aminolevulinic acid. As a result of this experiment, δ-aminolevulinic acid-treated groups have shown high viability in both Bastardhalibut (Table 20˜Table 23) and Sebastes schlegeli (Table 24˜Table 27).

Staphylococcus sp. [9] = assay: as above; type: in vivo, Sebastes schlegeli; conditions: 50 fish, Bastardhalibut
Experimental: as §4

Edwardsiella tarda [10] = assay: as above; type: in vivo, Sebastes schlegeli; conditions: 50 fish, Bastardhalibut
Experimental: as §4

Vibrio anguillarum [11] = assay: as above; type: in vivo, Sebastes schlegeli; conditions: 50 fish, Bastardhalibut
Experimental: as §4

Streptococcus sp. [12] = assay: as above; type: in vivo, Sebastes schlegeli; conditions: 50 fish, Bastardhalibut
Experimental: as §4

[13] = digestion 0.1 ppm from 4th day of infection, Sebastes schlegeli fry
[14] = digestion 1.0 ppm from 4th day of infection, Sebastes schlegeli fry
[15] = digestion 5.0 ppm from 4th day of infection, in Sebastes schlegeli
[16] = digestion 10 ppm from 4th day of infection
[17] = digestion 5.0 ppm from 4th day of infection
[18] = digestion 10 ppm from 4th day of infection, Sebastes schlegeli fry
[19] = feed 0.1 ppm from 4th day of infection
[20] = feed 1.0 ppm from 4th day of infection
[21] = feed 10 ppm from 4th day of infection
[22] = feed 50 ppm from 4th day of infection

With NCC(=O)CCC(=O)O [δ-aminolevulinic acid] the Viability (Bastardhalibut) was 100%, the “Mortality during Cultivation” value (Bastardhalibut; dead of 20 fish) was 0 and the Viability (Edwardsiella tarda [1]; orally, 0.01 ppm in feed) was 70%. The “Mortality during Cultivation” value (Edwardsiella tarda [1]; orally, 0.01 ppm in feed) was 6, the Viability (Edwardsiella tarda [1]; orally, 1.0 ppm in feed) was 80% and the “Mortality during Cultivation” value (Edwardsiella tarda [1]; orally, 1.0 ppm in feed) was 4. The Viability (Edwardsiella tarda [1]; orally, 10 ppm in feed) was 85%, the “Mortality during Cultivation” value (Edwardsiella tarda [1]; orally, 10 ppm in feed) was 3 and the Viability (Edwardsiella tarda [1]; orally, 100 ppm in feed) was 90%. For the same compound, the “Mortality during Cultivation” value (Edwardsiella tarda [1]; orally, 100 ppm in feed) was 2, the Viability (Edwardsiella tarda [1]; to fish tanks, 0.01 ppm) was 65% and the “Mortality during Cultivation” value (Edwardsiella tarda [1]; to fish tanks, 0.01 ppm) was 7. For the same compound, the Viability (Edwardsiella tarda [1]; to fish tanks, 0.1 ppm) was 75%, the “Mortality during Cultivation” value (Edwardsiella tarda [1]; to fish tanks, 0.1 ppm) was 5 and the Viability (Edwardsiella tarda [1]; to fish tanks, 1.0 ppm) was 90%. The “Mortality during Cultivation” value (Edwardsiella tarda [1]; to fish tanks, 1.0 ppm) was 2, the Viability (Edwardsiella tarda [1]; to fish tanks, 10 ppm) was 85% and the “Mortality during Cultivation” value (Edwardsiella tarda [1]; to fish tanks, 10 ppm) was 3. The Viability (Staphylococcus epidermis [2]; [13]) was 40%, the Viability (Staphylococcus epidermis [2]; [14]) was 70% and the Viability (Staphylococcus epidermis [2]; [15]) was 66%. It also gave a Viability (Staphylococcus epidermis [2]; [16]) of 84%, a Viability (Pseudomonas sp.; [13]) of 40% and a Viability (Pseudomonas sp.; [14]) of 76%. The Viability (Pseudomonas sp.; [15]) was 86%, the Viability (Pseudomonas sp.; [16]) was 84% and the Viability (Staphylococcus sp. [3]; [13]) was 50%. It also gave a Viability (Staphylococcus sp. [3]; [14]) of 76%, a Viability (Staphylococcus sp. [3]; [17]) of 84% and a Viability (Staphylococcus sp. [3]; [18]) of 86%. For the same compound, the Viability (Edwardsiella tarda [4]; [13]) was 60%, the Viability (Edwardsiella tarda [4]; [14]) was 80% and the Viability (Edwardsiella tarda [4]; [15]) was 84%. The Viability (Edwardsiella tarda [4]; [18]) was 94%, the Viability (Vibrio anguillarum [5]; [13]) was 50% and the Viability (Vibrio anguillarum [5]; [14]) was 74%. It also gave a Viability (Vibrio anguillarum [5]; [17]) of 84%, a Viability (Vibrio anguillarum [5]; [18]) of 86% and a Viability (Streptococcus sp. [6]; [13]) of 50%. For the same compound, the Viability (Streptococcus sp. [6]; [14]) was 76%, the Viability (Streptococcus sp. [6]; [15]) was 86% and the Viability (Streptococcus sp. [6]; [18]) was 86%. The Viability (Vibrio anguillarum [7]; orally, 0.1 ppm in feed) was 65%, the “Mortality during Cultivation” value (Vibrio anguillarum [7]; orally, 0.1 ppm in feed) was 7 and the Viability (Vibrio anguillarum [7]; orally, 1.0 ppm in feed) was 55%. For the same compound, the “Mortality during Cultivation” value (Vibrio anguillarum [7]; orally, 1.0 ppm in feed) was 9, the Viability (Vibrio anguillarum [7]; orally, 10 ppm in feed) was 85% and the “Mortality during Cultivation” value (Vibrio anguillarum [7]; orally, 10 ppm in feed) was 3. The Viability (Vibrio anguillarum [7]; orally, 100 ppm in feed) was 90%, the “Mortality during Cultivation” value (Vibrio anguillarum [7]; orally, 100 ppm in feed) was 2 and the Viability (Vibrio anguillarum [7]; to fish tanks, 0.01 ppm) was 65%. For the same compound, the “Mortality during Cultivation” value (Vibrio anguillarum [7]; to fish tanks, 0.01 ppm) was 7, the Viability (Vibrio anguillarum [7]; to fish tanks, 0.1 ppm) was 65% and the “Mortality during Cultivation” value (Vibrio anguillarum [7]; to fish tanks, 0.1 ppm) was 7. The Viability (Vibrio anguillarum [7]; to fish tanks, 1.0 ppm) was 80%, the “Mortality during Cultivation” value (Vibrio anguillarum [7]; to fish tanks, 1.0 ppm) was 2 and the Viability (Vibrio anguillarum [7]; to fish tanks, 10 ppm) was 85%. The “Mortality during Cultivation” value (Vibrio anguillarum [7]; to fish tanks, 10 ppm) was 3, the Viability (Staphylococcus epidermis [8]; [19]) was 36% and the Viability (Staphylococcus epidermis [8]; [20]) was 63%. It also gave a Viability (Staphylococcus epidermis [8]; [21]) of 64%, a Viability (Staphylococcus epidermis [8]; [22]) of 86% and a Viability (Staphylococcus sp. [9]; [19]) of 48%. It also gave a Viability (Staphylococcus sp. [9]; [20]) of 70%, a Viability (Staphylococcus sp. [9]; [21]) of 78% and a Viability (Staphylococcus sp. [9]; [22]) of 88%. The Viability (Edwardsiella tarda [10]; [19]) was 52%, the Viability (Edwardsiella tarda [10]; [20]) was 62% and the Viability (Edwardsiella tarda [10]; [21]) was 68%. The Viability (Edwardsiella tarda [10]; [22]) was 88%, the Viability (Vibrio anguillarum [11]; [19]) was 50% and the Viability (Vibrio anguillarum [11]; [20]) was 74%. It also gave a Viability (Vibrio anguillarum [11]; [21]) of 84%, a Viability (Vibrio anguillarum [11]; [22]) of 86% and a Viability (Streptococcus sp. [12]; [19]) of 44%. For the same compound, the Viability (Streptococcus sp. [12]; [20]) was 66%, the Viability (Streptococcus sp. [12]; [21]) was 72% and the Viability (Streptococcus sp. [12]; [22]) was 82%.
